The test system of test [1] is murine splenocytes. In words: inhibition of murine splenocyte proliferation stimulated by anti-mu and IL-4. In kind it is cell-based. The note with it: FIG. 5; anti-mu (10 μg/ml) and IL-4 (12.5 ng/ml). The protocol: Drug was added to the cells at the doses indicated two hours prior to activation with anti-mu and IL-4. This in vitro assay is a model for immune suppression and treatment or prevention of autoimmune diseases. […] Background counts were less than 200 cpm.
There are a series of in vitro assays that can be used to measure immunosuppressive activity of a particular compound. These assays are a predictive model for treatment or prevention of autoimmune diseases, such as diabetes, lupus, arthritis, and the like. A first assay measures immunosuppressive activity of a drug at the B cell level. Spleens from adult mice contain immature B cells that express surface IgM. Cross-linking the surface IgM with an anti-mu antibody results in B cell proliferation. Additionally, this activation results in an increased expression of interleukin-4 receptors(IL-4R) on the surface of such cells. IL-4 acts as a growth factor for B cells and will increase the amount of proliferation induced by anti-mu. In the first assay, a mixture of anti-mu and murine IL-4 is added to murine splenocytes to cause their proliferation. Mice spleens are obtained from adult mice and a single cell suspension is prepared in RPMI 1640 medium supplemented with 10% FCS. […] Proliferation is determined on the third day with a pulse of tritiated thymidine. […]

Test [2] deals with human lymphocytes. Nature of the test: inhibition of blast formation from human lymphocytes stimulated by anti-CD3 antibody. The note with it: Lymphocyte, FIG. 10, read-out: IC50, blastogenesis stimulated by anti-CD3. In kind it is cell-based. The protocol:
This is a human in vitro assay for immunosuppressive activity of the inventive compounds.
A third assay measures an ability of an inventive compound to inhibit IL-2-induced proliferation of murine thymocytes. Thymus glands are obtained from 4-6 week old mice and plated as a single cell suspension into flat bottomed wells in RPMI 1640 medium supplemented with 10% fetal calf serum. The inventive compounds are added to appropriate wells and the cells are incubated for 1-2 hrs. Concanavilin A (ConA, 0.25 μg/ml) and IL-1 (20 ng/ml) are added and the plates are incubated for 4 days. Cell proliferation is determined as above. There are also variations for this assay that follow the same basic stimulation and measure inhibition of proliferation format. For example, splenocytes can be used instead of thymocytes to measure more of a B cell response than a T cell response (e.g., thymocytes) and stimulated by an anti-mu antibody (40 μg/ml), IL-4 or PMA (2.5 nM). Similarly, human lymphocytes can be used from normal human volunteers and stimulated with human IL-2 (100 U/ml, Genzyme) and/or anti-CD3 antibody (2.5 μg/ml, Boehinger Mannheim).
This example illustrates an experiment showing the effects of CT1525, CT1529 and CT1595 (see Table 1 above for chemical names) on inhibition of blast formation from human lymphocytes stimulated by IL-2 or an anti-CD3 antibody (FIG. 10). […]

Experimental findings from US5670506A, “Halogen, isothiocyanate or azide substituted xanthines” (Cell Therapeutics, Inc., priority 1993, dated 1997) are described below.

Structures are written as SMILES.

In the case of `Cn1cnc2c1c(=O)n(CCCCC(=O)CCl)c(=O)n2C` [CT1595, 1-(6-chloro-5-oxohexyl)-3,7-dimethylxanthine], in test [1], the “inhibition of splenocyte proliferation” value is reported as “most potent inhibitors of splenocyte proliferation in a dose-response manner”. The IC50 in test [2] is under 5 µM.

Broadly, the IC50 is the concentration at which inhibition is half-maximal.
